Reference: patent US20220257741A1, “COMBINATION THERAPY FOR CANCER” (IO Biotech ApS, priority 2016, published 2022)

Legend:
TC-1 tumour = TC-1 tumour model, IDO-Pep1 with 1-MT (Example 9); format: in vivo, C57BL/6 mice; conditions: 1-MT 2 mg/ml in drinking water; IDO-Pep1 100 μg/mouse s.c.
Description: The efficacy of the vaccines was assessed by overall survival.
4-6 week-old C57BL/6 mice were injected with 70,000 cell/ mouse of TC-1 cells. Treatment in respective groups was started when tumour reached an average size of approximately 0.075 cm^3 (approx. 10 days after tumour inoculation). For vaccination mouse IDO epitope, IDO-Pep1 was used. Mice were vaccinated subcutaneously with IDO Pep-1 at a dosage of 100 μg/mouse in combination with a Pan-HLADR-binding epitope (PADRE; aK-Cha-[sequence]a, 20 μg/mouse) and QuilA (10 μg/mouse). Mice were vaccinated two-three times with one-week interval, and the efficacy of the peptide vaccines was assessed by measuring tumour volume and/or survival. A group of mice were treated with 1-methyl tryptophan (1-MT) given in drinking water (2 mg/ml) for the duration of the study, and additional group of mice were treated with both IDO-Pep1 and 1-MT.

CT26 tumours = test: CT26 tumour model, prophylactic vaccination (Example 10); format: in vivo, BALB/c mice; conditions: 100 μg peptide + 30 μg CpG in Montanide, 7 days prior to tumour challenge
Description: BALB/c mice were prophylactically vaccinated with a mouse IDO peptide IDO-EP2 ([…]; SEQ ID NO: 34) and challenged with CT26 tumours 7 days later. The efficacy of the peptide vaccine was assessed by tumour burden. The mouse IDO peptide sequence (IDO-Pep1) was selected to provide a murine analog for the human IDO peptides tested in the earlier Examples, because the sequence of murine IDOL differs to that of human IDO1.
6-10 week-old BALB/c mice were immunized by subcutaneous injection at the base of the tail of 100 μg peptide IDO-EP2+30 μg CpG in 100 μL, Montanide adjuvant [Montanide ISA 51 VG (Seppic)] prepared as a 1:1 emulsification. Immunizations were carried out 7 days prior to tumour challenge. For CT26 tumour cell engraftment, each mouse received two subcutaneous injections (one on each flank) of 1×10^5 CT26 in 100 μL serum free DMEM. Caliper measurements of tumour length and width were recorded every 3-4 days beginning at day 6. Tumour volume was calculated using the formula 0.52(L×W^2). Mice were euthanized when the combined tumour volume reached the defined endpoint of approximately 2,000 mm^3.

CMV-specific CD8 T cells = test: Boost effect on CMV peptide-induced stimulation of T cells (tetramer staining, Example 2); format: cell-based; conditions: peptide added to CMV stimulated cell cultures, day 15
Description: Day 1: • Buffy coat samples were thawed, washed twice, resuspended in medium. Cells were counted. • Cells were then added to the wells of cell culture plates at 5×10^6/0.5 ml in X-VIVO+5% HS • Wells were stimulated with CMV peptide for 2 hours at room temperature. The CMV peptide used was HCMV pp65 495-504 ([…]). • After 2 hours IDO5, IO102 or an irrelevant HIV peptide used as control were added according to Table X and plates incubated for additional 2 hours at room temperature. • Added 1500 microL X-VIVO/5% HS to each well and placed plates in an incubator at 37° C.
Day 2 and 9: • IL2 was added ([…]
Day 8: • Wells were restimulated with IDO5, IO102 or HIV peptides, added according to table X before incubation for 2 hours at room temperature. • After restimulation the contents of each well were split in two and 1.5 ml X-VIVO+5% HS/well was added. • Plates were placed in an incubator at 37° C.
Day 15: • Cells were harvested and analysed by flow cytometry. • The percentage of CMV-specific CD8 T cells in each well was identified by using a CD8 monoclonal antibody (mAb) as well as the tetramer complexes HLA-A2/CMV pp65 495-504. • As control, cells were in addition stained with the tetramer complex HLA-A2/HIV-1 po1476-484 and CD8 mAb (data not shown).

PBMC = test: Direct IFN-γ ELISpot of patient PBMC stimulated with IO102 peptide; format: cell-based, human; conditions: patient PBMC at baseline, 5 μM peptide
[1] = system: IDO-specific T cell cultures; test: Intracellular cytokine staining of IO102 stimulated T-cell cultures; format: cell-based, human; conditions: after four weeks of in vitro IO102 stimulation, patients #02, #05, #07
Description: PBMCs were stimulated with IO102 peptide in X-vivo 15 with 5% human AB serum and 120 U/ml IL2 (Novartis, Denmark) in 24 well plates (Nunc, Fischer Scientific). Initially, 20 μM peptide was used, and the cultures were re-stimulated every 7 days with a log10 decreased concentration of peptide for every week. Cell-cultures were supplemented with new IL2 every 7-10 days. Cells were kept at a concentration of 3-4×10^6/well.
For enrichment and expansion of the IDO-specific T cells, cultured cells were restimulated, after four weeks of culture, with 20 μM peptide and enriched with the TNF-α Secretion Assay (Miltenyi Biotec) according to the manufacturer's instructions. Cells were peptide stimulated 2.5 hours before staining with the primary antibody. Enriched cells were expanded in a modified rapid expansion protocol (see below).
T cells enriched for IDO-reactivity were expanded, and approximately 1-2×10^5 cells were used initially. […] Cultures were regularly assessed with regard to cell-numbers and colour of the media, and transferred to T80 or T175 flasks in addition to adding new media if appropriate. Cells were harvested after total 14 days of culture and either analyzed directly or cryopreserved in […] AB serum and 10% dimethyl sulphoxide. […]

THP-1 cells [2] = test: 51Cr-release assay, PBMC killing of THP-1 (Example 5); format: cell-based; conditions: peptide 0.1 μM
Description: (§1) Buffycoats were thawed (day 0), washed twice, resuspended in medium, counted and plated into wells as set out in Table Z5. THP-1 cells were irradiated with 30 GY and washed twice in medium. THP-1 cells were counted and added to PBMC containing wells as set out in Table Z5 (total volume 2 ml). Plates were placed in an incubator at 37 degrees. On day 7, 1 ml supernatant/well was removed. Fresh irradiated THP-1 cells were prepared and counted as above and 1 ml added to the wells as shown in Table Z5 Cells were harvested and analyzed for cytotoxic activity on day 23. A standard ^51Cr-release assay was used to measure the cytotoxic potential of the peptide treated PBMCs. ^51Cr labeled THP-1 cells were used as target cells and peptide treated PBMCs as effector cells. Triton-X treated wells was used as maximum measurable lysis and medium alone as minimum lysis.
% specific lysis=((CPMsample−cpmminimum)/(cpmmaximum−cpmminimum))×100%

THP-1 cells [3] = test: 51Cr-release assay, PBMC killing of THP-1 (Example 4); format: cell-based; conditions: peptide 0.1 μM, day 17, range of E/T ratios
Description: as §1, with “Z4.” for “Z5.”, “Z4” for “Z5”, “days 7 and 14,” for “day 7,”, “removed.” for “removed. Fresh irradiated THP-1 cells were prepared and counted as above and 1 ml added to the wells as shown in Table Z5”, “17.” for “23.”
% Specific lysis=((cpmsample−cpmminimum)/(cpmmaximum−cpmminimum))×100%

Cn1cc(C[C@H](N)C(=O)O)c2ccccc21 [1-MT, 1-methyltryptophan]
Therapeutic efficacy (survival) (TC-1 tumour): modest therapeutic efficacy

LPTLSTDGL (listed as Homo sapiens) [IDO-EP2]
Anti-tumour effect (tumour volume) (CT26 tumours): anti-tumour protective effect

DTLLKALLEIASCLEKALQVF (listed as Homo sapiens) [IO102, 21 amino acid peptide, residues 194-214 of indoleamine 2,3-dioxygenase]
Fraction of CMV-specific T cells (CMV-specific CD8 T cells): larger fraction of CMV-specific T cells compared to adding IDO5/IO101
Pre-treatment IFN-γ ELISpot responses towards IO102 (PBMC): none of the patients had detectable pre-treatment responses
Cytokine-positive T cells upon stimulation with IO102 [1]: enrichment of cytokine-positive T cells was demonstrated, primarily CD4+
Allogenic killing of THP-1 cells compared to control peptide IDO scrambled (THP-1 cells [2]; day 23, E/T ratios 2:1-60:1): enhanced the allogenic killing of the THP-1 cells
Lysis of THP-1 cells compared to IDO5 peptide (THP-1 cells [2]; day 23, low E/T ratios): more efficient lysis of THP-1 cells
Allogenic killing (lysis) of THP-1 cells by PBMCs (THP-1 cells [3]): enhanced the allogenic killing of the THP-1 cells
